Laboratory results reported in patent US11420958B2, “Aryl and heteroaryl substituted indole compounds” (BRISTOL-MYERS SQUIBB COMPANY, priority 2017, dated 2022).

Assays:
Assay type in all cases: cell-based
human TLR7 = human TLR7 (Homo sapiens (Human), UniProt Q9NYK1); test: TLR7 inhibition reporter assay (HEK-Blue, SEAP); conditions: HEK-Blue cells overexpressing human TLR7, gardiquimod 7.5 μM stimulation
How it was run: (§1)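 Cells are treated with compound over a 0.05 nM–50 μM final range for 30 min at room temperature before agonist addition: gardiquimod at 7.5 μM for TLR7, R848 at 15.9 μM for TLR8, ODN2006 at 5 nM for TLR9. SEAP is measured after 22 h at 37 °C.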

human TLR8 = human TLR8 (Homo sapiens (Human), UniProt Q9NR97); test: TLR8 inhibition reporter assay (HEK-Blue, SEAP); conditions: HEK-Blue cells overexpressing human TLR8, R848 15.9 μM stimulation
How it was run: as §1

human TLR9 = human TLR9 (Homo sapiens (Human), UniProt Q9NR96); test: TLR9 inhibition reporter assay (HEK-Blue, SEAP); conditions: HEK-Blue cells overexpressing human TLR9, ODN2006 5 nM stimulation
How it was run: as §1

Chain of human TLR9 (Q9NR96 26-1032): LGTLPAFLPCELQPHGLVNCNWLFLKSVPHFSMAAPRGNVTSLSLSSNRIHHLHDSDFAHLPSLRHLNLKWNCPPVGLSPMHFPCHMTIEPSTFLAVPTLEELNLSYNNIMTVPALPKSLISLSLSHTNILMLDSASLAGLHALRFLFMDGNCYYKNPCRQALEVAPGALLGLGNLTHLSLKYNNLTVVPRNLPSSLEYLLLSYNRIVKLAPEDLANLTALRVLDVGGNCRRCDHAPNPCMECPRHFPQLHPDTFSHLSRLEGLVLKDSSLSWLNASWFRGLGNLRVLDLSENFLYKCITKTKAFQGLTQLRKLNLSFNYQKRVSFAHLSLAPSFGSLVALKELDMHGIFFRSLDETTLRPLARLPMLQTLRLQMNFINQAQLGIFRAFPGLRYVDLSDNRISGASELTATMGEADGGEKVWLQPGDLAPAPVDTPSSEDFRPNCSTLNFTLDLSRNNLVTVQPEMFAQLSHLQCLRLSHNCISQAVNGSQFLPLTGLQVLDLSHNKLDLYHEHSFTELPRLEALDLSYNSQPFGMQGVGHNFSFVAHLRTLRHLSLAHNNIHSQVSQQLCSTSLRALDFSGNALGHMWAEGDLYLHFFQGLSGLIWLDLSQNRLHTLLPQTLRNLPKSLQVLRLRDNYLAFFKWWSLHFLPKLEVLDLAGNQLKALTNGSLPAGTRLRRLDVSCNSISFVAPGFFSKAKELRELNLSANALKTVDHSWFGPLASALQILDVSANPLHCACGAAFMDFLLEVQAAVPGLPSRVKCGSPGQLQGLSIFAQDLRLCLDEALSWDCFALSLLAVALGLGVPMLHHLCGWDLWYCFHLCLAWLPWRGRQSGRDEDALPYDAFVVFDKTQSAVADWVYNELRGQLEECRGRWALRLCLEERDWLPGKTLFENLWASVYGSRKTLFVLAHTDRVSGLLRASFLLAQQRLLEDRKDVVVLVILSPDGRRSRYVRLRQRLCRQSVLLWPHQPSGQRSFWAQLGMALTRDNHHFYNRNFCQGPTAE
Chain of human TLR7 (Q9NYK1 27-1049): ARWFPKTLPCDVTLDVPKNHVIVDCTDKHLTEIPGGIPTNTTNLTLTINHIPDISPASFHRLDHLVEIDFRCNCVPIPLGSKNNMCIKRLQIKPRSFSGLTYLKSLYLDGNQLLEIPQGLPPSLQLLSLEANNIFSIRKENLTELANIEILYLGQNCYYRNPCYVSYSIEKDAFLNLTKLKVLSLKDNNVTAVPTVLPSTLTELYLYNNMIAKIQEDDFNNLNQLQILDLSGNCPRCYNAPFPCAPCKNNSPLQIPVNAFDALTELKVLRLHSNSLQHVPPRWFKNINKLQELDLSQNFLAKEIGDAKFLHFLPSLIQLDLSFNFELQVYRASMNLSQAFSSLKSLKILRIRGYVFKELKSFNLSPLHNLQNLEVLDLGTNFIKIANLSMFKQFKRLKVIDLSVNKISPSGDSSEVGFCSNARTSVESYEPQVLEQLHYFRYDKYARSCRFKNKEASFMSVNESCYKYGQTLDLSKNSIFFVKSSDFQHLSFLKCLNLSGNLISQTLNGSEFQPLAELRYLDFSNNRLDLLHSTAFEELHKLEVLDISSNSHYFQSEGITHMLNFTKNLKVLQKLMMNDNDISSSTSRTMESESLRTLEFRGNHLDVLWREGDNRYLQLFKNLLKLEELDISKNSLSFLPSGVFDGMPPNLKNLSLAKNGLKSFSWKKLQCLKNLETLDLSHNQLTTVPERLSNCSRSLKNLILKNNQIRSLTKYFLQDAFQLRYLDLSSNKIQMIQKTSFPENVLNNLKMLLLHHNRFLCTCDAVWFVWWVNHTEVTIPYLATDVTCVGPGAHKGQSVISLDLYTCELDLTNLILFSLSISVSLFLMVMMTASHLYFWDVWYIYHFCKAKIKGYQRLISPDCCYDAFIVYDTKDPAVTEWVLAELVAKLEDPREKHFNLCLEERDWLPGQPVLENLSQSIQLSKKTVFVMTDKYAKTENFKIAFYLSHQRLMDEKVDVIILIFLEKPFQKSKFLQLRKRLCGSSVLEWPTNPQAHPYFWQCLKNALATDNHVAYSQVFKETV
Chain of human TLR8 (Q9NR97 27-1041): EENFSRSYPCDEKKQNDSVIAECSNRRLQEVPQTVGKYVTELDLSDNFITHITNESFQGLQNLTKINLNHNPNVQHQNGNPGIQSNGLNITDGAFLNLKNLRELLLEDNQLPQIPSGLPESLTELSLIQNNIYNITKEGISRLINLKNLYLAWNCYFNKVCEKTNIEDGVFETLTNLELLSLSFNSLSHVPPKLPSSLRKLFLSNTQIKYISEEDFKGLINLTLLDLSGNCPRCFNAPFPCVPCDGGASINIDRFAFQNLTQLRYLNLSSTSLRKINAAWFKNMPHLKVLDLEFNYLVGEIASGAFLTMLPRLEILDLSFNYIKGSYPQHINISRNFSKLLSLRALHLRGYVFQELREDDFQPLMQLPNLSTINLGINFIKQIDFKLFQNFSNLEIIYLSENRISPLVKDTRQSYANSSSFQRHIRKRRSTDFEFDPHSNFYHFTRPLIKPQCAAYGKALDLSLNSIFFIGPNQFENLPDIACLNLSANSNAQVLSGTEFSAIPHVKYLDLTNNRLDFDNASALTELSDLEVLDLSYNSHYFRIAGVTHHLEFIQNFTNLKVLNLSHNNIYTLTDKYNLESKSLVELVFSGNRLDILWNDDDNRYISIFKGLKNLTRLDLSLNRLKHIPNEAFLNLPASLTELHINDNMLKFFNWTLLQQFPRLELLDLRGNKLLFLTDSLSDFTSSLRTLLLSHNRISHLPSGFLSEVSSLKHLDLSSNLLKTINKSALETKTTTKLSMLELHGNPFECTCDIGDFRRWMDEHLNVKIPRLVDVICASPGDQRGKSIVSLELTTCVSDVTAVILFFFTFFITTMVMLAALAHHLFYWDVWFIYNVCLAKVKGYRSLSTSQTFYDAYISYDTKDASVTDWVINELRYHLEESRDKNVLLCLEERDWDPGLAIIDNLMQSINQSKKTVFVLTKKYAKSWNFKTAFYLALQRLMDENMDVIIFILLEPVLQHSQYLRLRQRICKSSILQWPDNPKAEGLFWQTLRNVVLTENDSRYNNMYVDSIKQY

Row | IC50 (human TLR7) | IC50 (human TLR8) | IC50 (human TLR9) | Compound
1 | 60 nM | 14 nM | 3460 nM | COc1ccc(-c2[nH]c3ccc(-c4nnc(C5CCN(CC(=O)N(C)C)CC5)[nH]4)cc3c2C(C)C)cc1OC [Example 129, 2-(4-(5-(2-(3,4-dimethoxyphenyl)-3-isopropyl-1H-indol-5-yl)-4H-1,2,4-triazol-3-yl)piperidin-1-yl)-N,N-dimethylacetamide]
2 | 27 nM | 209 nM | 7000 nM | CNC(=O)CN1CCC(c2nnc(-c3ccc4[nH]c(-c5ccc(OC)c(OC)c5)c(C(C)C)c4c3)[nH]2)CC1 [Example 130, 2-(4-(5-(2-(3,4-dimethoxyphenyl)-3-isopropyl-1H-indol-5-yl)-4H-1,2,4-triazol-3-yl)piperidin-1-yl)-N-methylacetamide]
3 | 29 nM | 37 nM | 6480 nM | COc1ccc(-c2[nH]c3ccc(-c4nnc(C5CCN(C(=O)CN(C)C)CC5)[nH]4)cc3c2C(C)C)cc1OC [Example 131, 1-(4-(5-(2-(3,4-dimethoxyphenyl)-3-isopropyl-1H-indol-5-yl)-4H-1,2,4-triazol-3-yl)piperidin-1-yl)-2-(dimethylamino)ethan-1-one]
4 | 2680 nM | 44 nM | 47400 nM | CNCc1nnc(-c2ccc3[nH]c(-c4ccnc5n[nH]cc45)c(C(C)C)c3c2)o1 [Example 132, 1-(5-(3-isopropyl-2-(2H-pyrazolo[3,4-b]pyridin-4-yl)-1H-indol-5-yl)-1,3,4-oxadiazol-2-yl)-N-methylmethanamine]
5 | 18 nM | 2 nM | 441 nM | Cc1cc(-c2[nH]c3ccc(-c4nnc(C(=O)NCCN(C)C)s4)cc3c2C(C)C)ccn1 [Example 133, N-(2-(dimethylamino)ethyl)-5-(3-isopropyl-2-(2-methylpyridin-4-yl)-1H-indol-5-yl)-1,3,4-thiadiazole-2-carboxamide]
6 | 44 nM | 7.8 nM | 1380 nM | Cc1cc(-c2[nH]c3ccc(-c4nnc(C(=O)NC5CCN(C(C)C)CC5)s4)cc3c2C(C)C)ccn1 [Example 135, 5-(3-isopropyl-2-(2-methylpyridin-4-yl)-1H-indol-5-yl)-N-(1-isopropylpiperidin-4-yl)-1,3,4-thiadiazole-2-carboxamide]
7 | 57 nM | 38 nM | 6880 nM | COc1ccc(-c2[nH]c3ccc(-c4ccc5c(c4)CCNC5)cc3c2C(C)C)cc1OC [Example 136, 6-(2-(3,4-dimethoxyphenyl)-3-isopropyl-1H-indol-5-yl)-1,2,3,4-tetrahydroisoquinoline]
8 | 29 nM | 2.7 nM | 705 nM | Cc1cc(-c2[nH]c3ccc(-c4nnc(C(=O)NC5CCNC5)s4)cc3c2C(C)C)ccn1 (stereo not drawn) [Example 137, 5-(3-isopropyl-2-(2-methylpyridin-4-yl)-1H-indol-5-yl)-N-(pyrrolidin-3-yl)-1,3,4-thiadiazole-2-carboxamide]
9 | 26 nM | 1.4 nM | 542 nM | Cc1cc(-c2[nH]c3ccc(-c4nnc(CC5CCCCN5)o4)cc3c2C(C)C)ccn1 (stereo not drawn) [Example 138, 2-(3-isopropyl-2-(2-methylpyridin-4-yl)-1H-indol-5-yl)-5-(piperidin-2-ylmethyl)-1,3,4-oxadiazole]
10 | 28 nM | 2.8 nM | 523 nM | Cc1cc(-c2[nH]c3ccc(-c4nnc([C@@H]5CCNC5)o4)cc3c2C(C)C)ccn1 [Example 139, (R)-2-(3-isopropyl-2-(2-methylpyridin-4-yl)-1H-indol-5-yl)-5-(pyrrolidin-3-yl)-1,3,4-oxadiazole]
11 | 67 nM | 5.2 nM | 468 nM | Cc1cc(-c2[nH]c3ccc(-c4nnc(CN5CCNCC5)o4)cc3c2C(C)C)ccn1 [Example 140, 2-(3-isopropyl-2-(2-methylpyridin-4-yl)-1H-indol-5-yl)-5-(piperazin-1-ylmethyl)-1,3,4-oxadiazole]
12 | 192 nM | 27 nM | > 50000 nM | Cc1cc(-c2[nH]c3ccc(-c4nnc(Cn5ccnc5)o4)cc3c2C(C)C)ccn1 [Example 141, 2-((1H-imidazol-1-yl)methyl)-5-(3-isopropyl-2-(2-methylpyridin-4-yl)-1H-indol-5-yl)-1,3,4-oxadiazole]
13 | 25 nM | 1.7 nM | 621 nM | CNCCc1nnc(-c2ccc3[nH]c(-c4ccnc(C)c4)c(C(C)C)c3c2)o1 [Example 142, 2-(5-(3-isopropyl-2-(2-methylpyridin-4-yl)-1H-indol-5-yl)-1,3,4-oxadiazol-2-yl)-N-methylethan-1-amine]
14 | 47 nM | 0.8 nM | 1680 nM | Cc1cc(-c2[nH]c3ccc(-c4nnc(CCN(C)C)o4)cc3c2C(C)C)ccn1 [Example 143, 2-(5-(3-isopropyl-2-(2-methylpyridin-4-yl)-1H-indol-5-yl)-1,3,4-oxadiazol-2-yl)-N,N-dimethylethan-1-amine]
15 | 258 nM | 17 nM | > 50000 nM | Cc1cc(-c2[nH]c3ccc(-c4nnc(Cc5c[nH]cn5)o4)cc3c2C(C)C)ccn1 [Example 144, 2-((1H-imidazol-4-yl)methyl)-5-(3-isopropyl-2-(2-methylpyridin-4-yl)-1H-indol-5-yl)-1,3,4-oxadiazole]
16 | 34 nM | 1 nM | 633 nM | Cc1cc(-c2[nH]c3ccc(-c4nnc(C[C@H]5CCCN5)o4)cc3c2C(C)C)ccn1 [Example 145, (R)-2-(3-isopropyl-2-(2-methylpyridin-4-yl)-1H-indol-5-yl)-5-(pyrrolidin-2-ylmethyl)-1,3,4-oxadiazole]
17 | 15 nM | 3 nM | 651 nM | Cc1cc(-c2[nH]c3ccc(-c4nnc([C@H]5CCNC5)o4)cc3c2C(C)C)ccn1 [Example 146, (S)-2-(3-isopropyl-2-(2-methylpyridin-4-yl)-1H-indol-5-yl)-5-(pyrrolidin-3-yl)-1,3,4-oxadiazole]
18 | 192 nM | 20 nM | 2250 nM | COc1ccc(-c2[nH]c3ccc(-c4nc(C(=O)NC5CCN(C(C)C)CC5)cs4)cc3c2C(C)C)cc1OC [Example 147, 2-(2-(3,4-dimethoxyphenyl)-3-isopropyl-1H-indol-5-yl)-N-(1-isopropylpiperidin-4-yl)thiazole-4-carboxamide]
19 | 945 nM | 37 nM | > 50000 nM | CC(C)c1c(-c2ccnc3[nH]ncc23)[nH]c2ccc(-c3nnc(CNC4CC4)o3)cc12 [Example 148, N-((5-(3-isopropyl-2-(1H-pyrazolo[3,4-b]pyridin-4-yl)-1H-indol-5-yl)-1,3,4-oxadiazol-2-yl)methyl)cyclopropanamine]
20 | 7280 nM | 50 nM | > 50000 nM | CC(C)c1c(-c2ccnc3[nH]ncc23)[nH]c2ccc(-c3nnc(CNCC(C)(C)C)o3)cc12 [Example 149, N-((5-(3-isopropyl-2-(1H-pyrazolo[3,4-b]pyridin-4-yl)-1H-indol-5-yl)-1,3,4-oxadiazol-2-yl)methyl)-2,2-dimethylpropan-1-amine]
21 | 2240 nM | 378 nM | > 50000 nM | CC(C)c1c(-c2ccnc3[nH]ncc23)[nH]c2ccc(-c3nnc(CNCC#N)o3)cc12 [Example 150, 2-(((5-(3-isopropyl-2-(1H-pyrazolo[3,4-b]pyridin-4-yl)-1H-indol-5-yl)-1,3,4-oxadiazol-2-yl)methyl)amino)acetonitrile]
22 | 5340 nM | 18 nM | > 50000 nM | CC(C)c1c(-c2ccnc3[nH]ncc23)[nH]c2ccc(-c3nnc(CNC45CC6CC(CC(C6)C4)C5)o3)cc12 [Example 151, N-((5-(3-isopropyl-2-(1H-pyrazolo[3,4-b]pyridin-4-yl)-1H-indol-5-yl)-1,3,4-oxadiazol-2-yl)methyl)adamantan-1-amine]
23 | 2330 nM | 471 nM | > 50000 nM | CC(C)c1c(-c2ccnc3[nH]ncc23)[nH]c2ccc(-c3nnc(CN4CCOCC4)o3)cc12 [Example 152, 4-((5-(3-isopropyl-2-(1H-pyrazolo[3,4-b]pyridin-4-yl)-1H-indol-5-yl)-1,3,4-oxadiazol-2-yl)methyl)morpholine]
24 | 1570 nM | 138 nM | > 50000 nM | CC(=O)N1CCN(Cc2nnc(-c3ccc4[nH]c(-c5ccnc6[nH]ncc56)c(C(C)C)c4c3)o2)CC1 [Example 153, 1-(4-((5-(3-isopropyl-2-(1H-pyrazolo[3,4-b]pyridin-4-yl)-1H-indol-5-yl)-1,3,4-oxadiazol-2-yl)methyl)piperazin-1-yl)ethan-1-one]
25 | 1410 nM | 31 nM | > 50000 nM | CC(C)c1c(-c2ccnc3[nH]ncc23)[nH]c2ccc(-c3nnc(CN(C)C(C)C)o3)cc12 [Example 154, N-((5-(3-isopropyl-2-(1H-pyrazolo[3,4-b]pyridin-4-yl)-1H-indol-5-yl)-1,3,4-oxadiazol-2-yl)methyl)-N-methylpropan-2-amine]
26 | 1420 nM | 127 nM | > 50000 nM | CC(=O)N1CCCN(Cc2nnc(-c3ccc4[nH]c(-c5ccnc6[nH]ncc56)c(C(C)C)c4c3)o2)CC1 [Example 155, 1-(4-((5-(3-isopropyl-2-(1H-pyrazolo[3,4-b]pyridin-4-yl)-1H-indol-5-yl)-1,3,4-oxadiazol-2-yl)methyl)-1,4-diazepan-1-yl)ethan-1-one]
27 | 1410 nM | 212 nM | > 50000 nM | CC(C)c1c(-c2ccnc3[nH]ncc23)[nH]c2ccc(-c3nnc(CN4CCNC(=O)C4)o3)cc12 [Example 156, 4-((5-(3-isopropyl-2-(1H-pyrazolo[3,4-b]pyridin-4-yl)-1H-indol-5-yl)-1,3,4-oxadiazol-2-yl)methyl)piperazin-2-one]
